Test [1] deals with T1, human α1 adrenoceptor subtype B (Homo sapiens, UniProt P35368).
T1 construct: expressed in transfected cells; host or cells: CHO-K1
T1 sequence (P35368 1-520): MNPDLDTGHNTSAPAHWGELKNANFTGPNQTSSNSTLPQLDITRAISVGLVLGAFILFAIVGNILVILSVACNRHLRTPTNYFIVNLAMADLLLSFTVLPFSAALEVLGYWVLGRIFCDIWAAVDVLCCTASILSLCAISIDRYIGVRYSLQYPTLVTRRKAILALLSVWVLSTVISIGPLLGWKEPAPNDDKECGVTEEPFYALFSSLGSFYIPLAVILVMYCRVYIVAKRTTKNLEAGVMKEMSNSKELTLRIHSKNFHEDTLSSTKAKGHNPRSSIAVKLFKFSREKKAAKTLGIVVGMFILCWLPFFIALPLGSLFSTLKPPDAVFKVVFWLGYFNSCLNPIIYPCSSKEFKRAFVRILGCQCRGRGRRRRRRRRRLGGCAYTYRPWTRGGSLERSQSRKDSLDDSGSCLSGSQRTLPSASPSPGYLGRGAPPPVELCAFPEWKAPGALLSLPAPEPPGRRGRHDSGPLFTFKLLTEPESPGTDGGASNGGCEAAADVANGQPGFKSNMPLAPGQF
The test can be described thus: Phenylephrine-induced intracellular calcium (FLIPR Calcium 6) in CHO cells, α1B. The note with it: in words. Type of test: cell-based. The protocol: (§1) CHO-K1 cells were stably transfected with a plasmid containing human al-AR subtypes A, B and D in separate cell lines in DMEM-F12 medium with 10% FBS, 1% penicillin-streptomycin and 200 μg/mL Geneticin (G418, Invitrogen, Carlsbad, CA).
(§2) On the next day, CHO cells were treated with either vehicle (0.1% DMSO) or SUL-121 enantiomers for 30 min at 37° C. and stimulated with a 3-fold dilution series of PE (20 μM-100 pM). [Ca^2], was measured using the fluorescent FLIPR Calcium 6 assay kit (Molecular Devices) in immortalized CHO cells stably expressing the α1 adrenoceptor.
(§3) Initially, calcium responses induced by non-cumulative concentration series of phenylephrine were investigated using fluorescent measurements in α1A adrenoceptor-overexpressing CHO cells treated with SUL-150 and SUL-151 (FIG. 4). Fluorescent measurement data was processed and analyzed in SoftMax Pro 7 and expressed as % of baseline AUC with a 3-fold multiplier using an average of first 10 measurement points as baseline.
For orientation: Calcium assays in cells follow changes in intracellular calcium, usually with a dye or a luminescent sensor.

Test [2] addresses T2, human α1 adrenoceptor subtype D (Homo sapiens, UniProt P25100).
T2 construct: expressed in transfected cells; host or cells: CHO-K1
T2 sequence (P25100 1-572): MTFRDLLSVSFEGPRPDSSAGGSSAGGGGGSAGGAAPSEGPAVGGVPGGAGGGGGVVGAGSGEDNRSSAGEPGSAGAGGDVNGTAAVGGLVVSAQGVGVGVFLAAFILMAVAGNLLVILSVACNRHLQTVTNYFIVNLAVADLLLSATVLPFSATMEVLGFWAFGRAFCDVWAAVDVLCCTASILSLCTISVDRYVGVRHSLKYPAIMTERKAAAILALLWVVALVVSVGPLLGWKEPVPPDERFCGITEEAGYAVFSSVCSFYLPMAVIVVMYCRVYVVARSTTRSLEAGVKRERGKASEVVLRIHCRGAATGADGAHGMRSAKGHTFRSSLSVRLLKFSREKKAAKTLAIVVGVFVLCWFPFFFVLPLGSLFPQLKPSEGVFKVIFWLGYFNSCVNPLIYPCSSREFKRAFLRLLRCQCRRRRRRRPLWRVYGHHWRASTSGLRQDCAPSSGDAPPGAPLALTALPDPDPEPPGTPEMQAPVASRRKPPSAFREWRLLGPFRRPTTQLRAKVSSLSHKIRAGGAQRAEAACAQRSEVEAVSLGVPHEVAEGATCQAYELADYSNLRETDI
Nature of the test: Phenylephrine-induced intracellular calcium (FLIPR Calcium 6) in CHO cells, α1D. Type of test: cell-based. The following applies: in words. As to the method:
as §1, §2, §3

In test [3] the target is T3, human α1 adrenoceptor subtype A (Homo sapiens, UniProt P35348).
T3 construct: expressed in transfected cells; host or cells: CHO-K1
T3 sequence (P35348 1-466): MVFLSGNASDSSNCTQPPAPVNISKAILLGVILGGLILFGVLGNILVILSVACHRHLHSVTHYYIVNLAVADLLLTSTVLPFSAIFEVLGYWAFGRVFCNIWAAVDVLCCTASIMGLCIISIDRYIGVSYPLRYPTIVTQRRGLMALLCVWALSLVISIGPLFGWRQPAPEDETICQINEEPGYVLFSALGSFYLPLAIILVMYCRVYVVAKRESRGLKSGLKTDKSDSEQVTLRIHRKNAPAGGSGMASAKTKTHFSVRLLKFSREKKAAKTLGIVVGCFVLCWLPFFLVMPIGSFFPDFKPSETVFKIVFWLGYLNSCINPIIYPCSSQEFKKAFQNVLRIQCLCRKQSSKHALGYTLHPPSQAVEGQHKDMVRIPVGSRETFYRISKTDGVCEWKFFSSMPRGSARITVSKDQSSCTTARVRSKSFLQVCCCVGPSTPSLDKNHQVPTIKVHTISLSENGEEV
Nature of the test: Phenylephrine-induced intracellular calcium (FLIPR Calcium 6) in CHO cells, α1A. Type of test: cell-based. As to the method: as §1, §2, §3

For the next test, the system named is α1 adrenoceptor. The test can be described thus: Phenylephrine-induced constriction of isolated porcine intrarenal arteries (myography). The protocol: Porcine kidneys were obtained from a local slaughterhouse (Kroon Vlees, Gotenburgweg 30, 9723 TM Groningen. The Netherlands) and transported on ice in normal physiological Krebs buffer containing 120 mM NaCl, 6 mM KCl, 2.5 mM CaCl2×2H2O, 1.2 mM MgCl2×6H2O, 1.2 mM NaH2PO4×H2O, 25 mM NaHCO3 and 11.4 mM D-(+)-Glucose monohydrate (all ingredients were purchased from Merck) in ultrapure water.
The renal artery tree was dissected from the kidney, cleaned of surrounding connective tissue and cut into equally-sized ring segments (2 mm in length). In some rings, endothelium denudation was performed by gentle rubbing of the intimal surface with a paper clip. Rings were mounted in organ baths as described previously (Buikema et al., 2000). Arterial rings were washed thoroughly by replacing Krebs buffer and allowed to equilibrate for a period of 60 min under 1.4 g of resting tension before they were assessed for viability by inducing 2 subsequent constrictions with KCl (60 mM). […] After washout and stabilization, rings were treated for 30 minutes by incubation with vehicle (0.1% DMSO), SUL-121, SUL-150 or SUL-151, followed by subsequent incubation with cumulative doses of phenylephrine.
Dose-dependent constriction responses to phenylephrine (10^−8M-10^−4M) were recorded in said isolated porcine intrarenal arteries. Buffer was warmed to 37° C. and aerated with 95% O2 and 5% CO2 before use.
Vascular constriction responses are expressed as percentage of final response to KCl. Data are expressed as mean±SEM. *p<0.05.
To explore the effects of the enantiomers of (6-hydroxy-2,5,7,8-tetramethylchroman-2-yl)(piperazin-1-yl)methanone (SUL-150 and SUL-151) on constriction of isolated porcine intrarenal arteries, cumulative dose response curves to the α1 adrenoceptor agonist phenylephrine (PE) were constructed in the presence and absence of SUL-150 and SUL-151.

Another test addresses T4, α1A adrenoceptor (Homo sapiens, UniProt P35348).
T4 construct: expressed in transfected cells; host or cells: CHO-K1
T4 sequence (P35348 1-466): T3 sequence (P35348 1-466)
The test can be described thus: Radiolabeled prazosin displacement binding assay in α1A adrenoceptor transgenic CHO cells. An excerpt: We therefore explored whether SUL-150 could directly interact with the α1 adrenoceptor as a receptor antagonist.

Consider `Cc1c(C)c2c(c(C)c1O)CCC(C)(C(=O)N1CCNCC1)O2` (stereo not shown) [SUL-151, (6-hydroxy-2,5,7,8-tetramethylchroman-2-yl)(piperazin-1-yl)methanone], for which the “effect on PE-induced calcium transients, α1 adrenoceptor subtype B” value in test [1] was “did not affect calcium transients”. Further, in test [2], the “effect on PE-induced calcium transients, α1 adrenoceptor subtype D” value is “did not affect calcium transients”. Further, the “logEC50 of phenylephrine-induced calcium influx, α1A” value is reported as −8.09 ± 0.10 in test [3] (10 μM test compound), −8.09 ± 0.11 in test [3] (30 μM test compound) and −7.98 ± 0.10 in test [3] (100 μM test compound). Also, the “effect on PE-induced calcium transients, α1 adrenoceptor subtype A” value in test [3] (in words) was “did not affect calcium transients”. For the same compound, the “logEC50 of phenylephrine-induced constriction responses” value with α1 adrenoceptor (10 μM test compound) was −5.82 ± 0.05^; in the test on α1 adrenoceptor (30 μM test compound), −5.89 ± 0.04; in the test on α1 adrenoceptor (100 μM test compound), −5.77 ± 0.04^. Also, at α1A adrenoceptor, the “concentrations at which [7-Methoxy-3H]-prazosin is displaced” value was “higher than 10 μM”.

Source of the values: patent US12156862B2, “Medicaments for the treatment of vasoconstriction related diseases or disorders” (Sulfateq B.V., priority 2017, dated 2024).
